Results: patent publication US20240139026A1, “Ophthalmic Lenses And Methods For Correcting, Slowing, Reducing, And/Or Controlling The Progression Of Myopia In Conjunction With Use Of Atropine Or Related Compounds” (Brien Holden Vision Institute Limited, priority 2020, published 2024)

Columns and labels:
myopia progression = settings: cited from earlier work
[1] = test system: amplitude of accommodation; settings: concentrations greater than 0.1% Atropine; children aged 6-12 years; cited from earlier work
[2] = test system: myopic eye of an individual; experiment: Spherical aberration of combined spectacle lens and eye system with Atropine-enlarged pupil; assay type: in vivo; settings: -2.00 D myope; pupillary diameter increase from about 3 mm to about 6 mm with use of Atropine
Source text: FIG. 1A illustrates a schematic plot of pupil diameters resulting from use of Atropine, a widely used muscarinic receptor antagonist and a pharmaceutical agent for myopia therapy. […] Considering FIG. 1A, it is observed that use of 0.01% Atropine which to date is the lowest concentration used for treatment of myopia in individuals, increases the photopic pupillary diameter by approximately 1 mm. Increasing the concentration to anywhere from 0.025% to 0.1% Atropine, increases the photopic pupil size from about 2 mm to about 3 mm. With the highest concentration of 0.5% Atropine, the increase in photopic pupil size was largest and at about 3 mm. An increase in pupil size increases aberrations of the eye. […] FIG. 1B illustrates the increase in higher order aberrations from 3rd to 6th order as determined by aberrometry for the myopic eye of an individual who has a distance refractive error of approximately −2.00 D. It is observed that there is a significant increase in aberrations with a larger pupil. An increase in the pupil size may result in a functional decrement in visual performance and one or more unwanted effects such as poorer visual performance, reduced contrast, blurred vision, increased glare and increased photophobia (sensitivity to light). […]

## CN1[C@@H]2CC[C@H]1C[C@@H](OC(=O)C(CO)c1ccccc1)C2 (stereo partly shown) [Atropine]
Myopia progression; Atropine eye drops 0.01% to 1.0%
  concentration dependence of efficacy: the higher the concentration, the greater the efficacy
Myopia progression; used topically
  efficacy in slowing myopia progression: demonstrated a level of efficacy in slowing myopia progression
[1]
  reduction of amplitude of accommodation: reduce the amplitude of accommodation by more than half
[2]
  effective increase of the spherical aberration of the combined spectacle lens and eye system: about +0.50 D
